Like-named read-outs stand apart in the source and are kept apart here.
Experiments:
[1] = tested on: LTD4-induced bronchoconstriction in guinea pigs; test: LTD4-induced bronchoconstriction in guinea pigs (Konzett-Rossler method); assay type: in vivo, guinea pig; conditions: oral, 1 mg/kg
Experimental: Guinea pigs were anesthetized by injection of pentobarbital sodium (75 mg/kg, i.p.), and a polyethylene cannula was inserted into the trachea which had been incised. For the purpose of administration of LTD4, a catheter was inserted into the jugular vein of the animal. One side of the cannula inserted into the trachea was connected with a volume-controlled respirator to perform artificial respiration at a ventilation volume of 5 mL and at a ventilation rate of 70 times/min. LTD4 was administrated intravenously to induce the bronchoconstriction, and the airway resistance was measured using the Konzett-Rossler method. The bronchoconstriction response was measured for 10 minutes after LTD4-challenge, and the ratio of bronchoconstriction response was determined and represented as a percentage of the maximal increase in insufflation pressure achieved by clamping off the trachea. In this connection, the crystalline forms of the present invention were orally administered 1, 2, 4, 8, 12, 18, 24, 36 and 48 hours prior to challenge by LTD4.

[2] = Thermodynamical stability test by differential scanning calorimetry (DSC); assay type: physicochemical
Experimental: The thermodynamical stability of each crystalline form of compound I, compound II, and compound III was analyzed by differential scanning calorimetry (DSC). As a result, it was apparent that the crystalline forms of the present invention are ones which have improved thermodynamical stability.

[3] = Photostability test (D65 lamp); assay type: physicochemical; conditions: not less than 1.2 million lux hours and 200 W·h/m^2, 25° C.±2° C., visual check
Experimental: Each crystalline form of compound I, compound II, and compound III were weighed about 5 mg, and were exposed to light from D65 lamp providing an overall illumination of not less than 1.2 million lux hours and an integrated near ultraviolet energy of not less than 200 W·h/m^2 under 25° C.±2° C.

[4] = administered 2 hours prior to LTD4 challenge
[5] = administered 24 hours prior to LTD4 challenge

SMILES	bronchoconstriction inhibition ratio [1, 4]	bronchoconstriction inhibition ratio [1, 5]	thermodynamical stability of the crystalline form [2]	photostability of the crystalline form [3]	further results
Cc1c(F)cccc1CCCCOc1ccc(/C=C/c2ccc(F)c3c(CCCC(=O)O)c(C)n(CCCC(=O)O)c23)cc1 [Comparative Example 4, 4,4′-{4-fluoro-7-[(E)-2-{4-[4-(3-fluoro-2-methylphenyl)butoxy]phenyl}vinyl]-2-methyl-1H-indole-1,3-diyl}dibutanoic acid]	97.5%	43.2%			
Cc1c(CCCC(=O)O)c2cccc(/C=C/c3ccc(OCCCCc4c(F)c(F)c(F)c(F)c4F)cc3)c2n1CCCC(=O)O [Comparative Example 5, 4,4′-{2-methyl-7-[(E)-2-{4-[4-(pentafluorophenyl)butoxy]phenyl}vinyl]-1H-indole-1,3-diyl}dibutanoic acid]	98.6%	74.1%			
Cc1c(CCCC(=O)O)c2c(F)ccc(/C=C/c3ccc(OCCCCc4c(F)cc(F)c(F)c4F)cc3)c2n1CCCC(=O)O [Comparative Example 6, 4,4′-{4-fluoro-2-methyl-7-[(E)-2-{4-[4-(2,3,4,6-tetrafluorophenyl)butoxy]phenyl}vinyl]-1H-indole-1,3-diyl}dibutanoic acid]	53.2%	16.1%			
Cc1c(F)cccc1CCCCOc1ccc(C#Cc2ccc(F)c3c(CCCC(=O)O)c(C)n(CCCC(=O)O)c23)cc1 [Example 12, 4,4′-[4-fluoro-7-({4-[4-(3-fluoro-2-methylphenyl)butoxy]phenyl}ethynyl)-2-methyl-1H-indole-1,3-diyl]dibutanoic acid]			the most thermodynamically stable crystalline form	photostable	fusion enthalpy ([2]; listed as type C crystal of compound I): 105.6 J/g
Cc1c(CCCC(=O)O)c2cccc(C#Cc3ccc(OCCCCc4c(F)c(F)c(F)c(F)c4F)cc3)c2n1CCCC(=O)O [Example 14, 4,4′-[2-methyl-7-({4-[4-(pentafluorophenyl)butoxy]phenyl}ethynyl)-1H-indole-1,3-diyl]dibutanoic acid]	98.5%	99.2%	thermodynamically stable	more photostable than type A crystal	
Cc1c(CCCC(=O)O)c2c(F)ccc(C#Cc3ccc(OCCCCc4c(F)cc(F)c(F)c4F)cc3)c2n1CCCC(=O)O [Example 16, 4,4′-[4-fluoro-2-methyl-7-({4-[4-(2,3,4,6-tetrafluorophenyl)butoxy]phenyl}ethynyl)-1H-indole-1,3-diyl]dibutanoic acid]			thermodynamically stable	photostable	
Cc1c(F)cccc1CCCCOc1ccc(C#Cc2ccc(F)c3c(CCCC(=O)O)c(C)n(CCCC(=O)O)c23)cc1 [type A crystal of compound I, 4,4′-[4-fluoro-7-({4-[4-(3-fluoro-2-methylphenyl)butoxy]phenyl}ethynyl)-2-methyl-1H-indole-1,3-diyl]dibutanoic acid]					fusion enthalpy [2]: 96.3 J/g
Cc1c(CCCC(=O)O)c2cccc(C#Cc3ccc(OCCCCc4c(F)c(F)c(F)c(F)c4F)cc3)c2n1CCCC(=O)O [type A crystal of compound II, 4,4′-[2-methyl-7-({4-[4-(pentafluorophenyl)butoxy]phenyl}ethynyl)-1H-indole-1,3-diyl]dibutanoic acid]					degree of change in color to yellow after test as compared to before test ([3]; type A versus type B crystal): bigger
Cc1c(F)cccc1CCCCOc1ccc(C#Cc2ccc(F)c3c(CCCC(=O)O)c(C)n(CCCC(=O)O)c23)cc1 [type B crystal of compound I, 4,4′-[4-fluoro-7-({4-[4-(3-fluoro-2-methylphenyl)butoxy]phenyl}ethynyl)-2-methyl-1H-indole-1,3-diyl]dibutanoic acid]					fusion enthalpy [2]: 57.2 J/g

— patent US8598223B2, “Crystalline forms of 4, 4′-[4-fluoro-7-({4-[4-(3-fluoro-2-methylphenyl) butoxy] phenyl} ethynyl)-2-methyl-1H-indole-1,3-diyl] dibutanoic acid, 4,4′-[2-methyl-7-({4-[4-(pentafluorophenyl) butoxy] phenyl} ethynyl)-1H-indole-1, 3-diyl] dibutanoic acid, and 4,4′-[4-fluoro-2-methyl-7-({4-[4-(2, 3, 4, …” (Ono Pharmaceutical Co., Ltd., priority 2010, dated 2013)
